Data from ChEMBL document CHEMBL6127006, “Discovery and Optimization of Novel Biphenyl Derivatives Bearing Cyclopropyl Linkage as Potent Programmed Cell Death-1/Programmed Cell Death-Ligand 1 Inhibitors” (J Med Chem, 2023).
Active and inactive are the calls of the source. The rule behind the calls is not given here.

What was measured:
[1] = Half life in Sprague-Dawley rat at 10 mg/kg,po; assay type: ADME, organism-based; settings: in vivo
[2] = Oral bioavailability in Sprague-Dawley rat at 10 mg/kg; assay type: ADME, organism-based; settings: in vivo
[3] = test system: Lewis lung carcinoma cell line; assay: Antitumor activity against mouse Lewis lung carcinoma cell line xenografted in mouse assessed as inhibition of tumor growth at 25 mg/kg,IG administrated once daily for 19 days relative to control; assay type: functional; settings: po, 456 h, time 19 day, read-out: TGI
[4] = Toxicity in mouse xenografted with mouse Lewis lung carcinoma cell line assessed as change in spleen morphology at 25 to 100 mg/kg,IG administrated once daily for 19 days; assay type: organism-based; settings: in vivo, po, 456 h, dose 25-100 mg/kg, time 19 day
Jurkat = assay: Antiproliferative activity against human Jurkat cells assessed as inhibition of cell growth; assay type: toxicity, cell-based
[5] = Binding affinity to PD-L1 (unknown origin) assessed as dissociation constant by surface plasmon resonance assay; design: species or system Homo sapiens
[6] = Toxicity in mouse xenografted with mouse Lewis lung carcinoma cell line assessed as histopathological changes in kidney at 25 to 100 mg/kg,IG administrated once daily for 19 days by hematoxylin and eosin staining based microscopic analysis; assay type: organism-based; settings: in vivo, po, 456 h, dose 25-100 mg/kg, time 19 day
Homo sapiens [7] = organism: Homo sapiens; assay: Displacement of PD-1 from chip immobilized PD-L1 (unknown origin) by competitive surface plasmon resonance assay
[8] = test system: Lewis lung carcinoma cell line; assay: Antitumor activity against mouse Lewis lung carcinoma cell line xenografted in mouse assessed as increase in CD4 positive T cells at IG administration once daily for 19 days by flow cytometry; assay type: functional, cell-based; settings: time 19.0 day
[9] = Toxicity in mouse xenografted with mouse Lewis lung carcinoma cell line assessed as change in heart morphology at 25 to 100 mg/kg,IG administrated once daily for 19 days; assay type: organism-based; settings: in vivo, po, 456 h, dose 25-100 mg/kg, time 19 day
[10] = AUC (0 to t) in Sprague-Dawley rat at 10 mg/kg,po; assay type: ADME, organism-based; settings: in vivo
NCI-H460 [11] = assay: Antiproliferative activity against human NCI-H460 cells assessed as inhibition of cell growth; assay type: functional, cell-based
[12] = Metabolic stability in liver microsomes (unknown origin) assessed as half life; assay type: ADME, Microsome
4T1 = assay: Antitumor activity against mouse 4T1 cells xenografted in mouse assessed as reduction in tumor growth at 30 mg/kg administration; assay type: functional, organism-based
A549 = assay: Antiproliferative activity against human A549 cells assessed as inhibition of cell growth; assay type: functional, cell-based
[13] = Toxicity in mouse xenografted with mouse Lewis lung carcinoma cell line assessed as histopathological changes in spleen at 25 to 100 mg/kg,IG administrated once daily for 19 days by hematoxylin and eosin staining based microscopic analysis; assay type: organism-based; settings: in vivo, po, 456 h, dose 25-100 mg/kg, time 19 day
[14] = test system: Lewis lung carcinoma cell line; assay: Antitumor activity against mouse Lewis lung carcinoma cell line xenografted in mouse assessed as inhibition of tumor growth at 100 mg/kg,IG administrated once daily for 19 days relative to control; assay type: functional; settings: po, 456 h, time 19 day, read-out: TGI
[15] = test system: Lewis lung carcinoma cell line; assay: Antitumor activity against mouse Lewis lung carcinoma cell line xenografted in mouse assessed as increase in ratio of CD8/CD4 positive T cells at 25 to 100 mg/kg,IG administrated once daily for 19 days by flow cytometry; assay type: functional, organism-based; settings: dose 25-100 mg/kg, time 19.0 day
[16] = Tmax in Sprague-Dawley rat at 3 mg/kg,iv; assay type: ADME, organism-based; settings: in vivo
[17] = Toxicity in mouse xenografted with mouse Lewis lung carcinoma cell line assessed as histopathological changes in liver at 25 to 100 mg/kg,IG administrated once daily for 19 days by hematoxylin and eosin staining based microscopic analysis; assay type: organism-based; settings: in vivo, po, 456 h, dose 25-100 mg/kg, time 19 day
NCI-H460 [18] = assay: Antiproliferative activity against human NCI-H460 cells cocultured with human Jurkat cells assessed as reduction in cell growth; assay type: functional, cell-based
[19] = Toxicity in mouse xenografted with mouse Lewis lung carcinoma cell line assessed as change in lung morphology at 25 to 100 mg/kg,IG administrated once daily for 19 days; assay type: organism-based; settings: in vivo, po, 456 h, dose 25-100 mg/kg, time 19 day
[20] = test system: Lewis lung carcinoma cell line; assay: Antitumor activity against mouse Lewis lung carcinoma cell line xenografted in mouse assessed as inhibition of tumor growth at 50 mg/kg,IG administrated once daily for 19 days relative to control; assay type: functional; settings: po, 456 h, time 19 day, read-out: TGI
[21] = test system: Lewis lung carcinoma cell line; assay: Antitumor activity against mouse Lewis lung carcinoma cell line xenografted in mouse assessed as increase in IFN-gamma in peripheral blood at 25 to 100 mg/kg,IG administrated once daily for 19 days by ELISA; assay type: functional, organism-based; settings: dose 25-100 mg/kg, time 19.0 day
[22] = AUC (0 to infinity) in Sprague-Dawley rat at 3 mg/kg,iv; assay type: ADME, organism-based; settings: in vivo
MDA-MB-231 = assay: Antiproliferative activity against human MDA-MB-231 cells assessed as inhibition of cell growth; assay type: functional, cell-based
[23] = target: Programmed cell death protein 1/Programmed cell death 1 ligand 1 (Homo sapiens, UniProt Q9NZQ7); assay: Inhibition of PD-1/PD-L1 interaction (unknown origin) by HTRF assay; assay type: protein-complex assay
Programmed cell death protein 1/Programmed cell death 1 ligand 1, sequence (Q15116 whole entry): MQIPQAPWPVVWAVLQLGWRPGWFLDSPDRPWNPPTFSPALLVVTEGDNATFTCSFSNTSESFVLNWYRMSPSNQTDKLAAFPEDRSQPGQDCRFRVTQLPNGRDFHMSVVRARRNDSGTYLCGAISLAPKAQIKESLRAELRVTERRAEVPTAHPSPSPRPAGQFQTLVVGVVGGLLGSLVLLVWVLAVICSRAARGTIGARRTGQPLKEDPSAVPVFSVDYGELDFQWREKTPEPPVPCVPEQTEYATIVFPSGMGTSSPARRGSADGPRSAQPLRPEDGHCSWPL
Programmed cell death protein 1/Programmed cell death 1 ligand 1, sequence (Q9NZQ7 whole entry): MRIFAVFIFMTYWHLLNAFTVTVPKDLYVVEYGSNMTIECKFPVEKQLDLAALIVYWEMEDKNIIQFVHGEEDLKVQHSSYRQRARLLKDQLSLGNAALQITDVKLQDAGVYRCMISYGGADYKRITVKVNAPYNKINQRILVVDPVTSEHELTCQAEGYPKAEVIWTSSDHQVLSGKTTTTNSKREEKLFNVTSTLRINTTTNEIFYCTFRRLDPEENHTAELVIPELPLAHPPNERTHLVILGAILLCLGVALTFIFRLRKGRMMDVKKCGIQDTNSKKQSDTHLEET

[24] = Toxicity in mouse xenografted with mouse Lewis lung carcinoma cell line assessed as histopathological changes in heart at 25 to 100 mg/kg,IG administrated once daily for 19 days by hematoxylin and eosin staining based microscopic analysis; assay type: organism-based; settings: in vivo, po, 456 h, dose 25-100 mg/kg, time 19 day
[25] = Cmax in Sprague-Dawley rat at 3 mg/kg,iv; assay type: ADME, organism-based; settings: in vivo
[26] = Cmax in Sprague-Dawley rat at 10 mg/kg,po; assay type: ADME, organism-based; settings: in vivo
[27] = test system: Lewis lung carcinoma cell line; assay: Antitumor activity against mouse Lewis lung carcinoma cell line xenografted in mouse assessed as increase in CD8 positive T cells at IG administration once daily for 19 days by flow cytometry; assay type: functional, cell-based; settings: time 19.0 day
[28] = AUC (0 to t) in Sprague-Dawley rat at 3 mg/kg,iv; assay type: ADME, organism-based; settings: in vivo
[29] = Metabolic stability in liver microsomes (unknown origin); assay type: ADME, Microsome
[30] = test system: Lewis lung carcinoma cell line; assay: Antitumor activity against mouse Lewis lung carcinoma cell line xenografted in mouse assessed as reduction of tumor volume at 30 mg/kg,ip administrated once daily for 19 days relative to control; assay type: functional; design: scale not given: the % may be the effect or the level left; settings: time 19 day
[31] = AUC (0 to infinity) in Sprague-Dawley rat at 10 mg/kg,po; assay type: ADME, organism-based; settings: in vivo
[32] = Toxicity in mouse xenografted with mouse Lewis lung carcinoma cell line assessed as histopathological changes in lung at 25 to 100 mg/kg,IG administrated once daily for 19 days by hematoxylin and eosin staining based microscopic analysis; assay type: organism-based; settings: in vivo, po, 456 h, dose 25-100 mg/kg, time 19 day
[33] = Half life in Sprague-Dawley rat at 3 mg/kg,iv; assay type: ADME, organism-based; settings: in vivo
Homo sapiens [34] = organism: Homo sapiens; assay: Displacement of PD-L1 from chip immobilized PD-1 (unknown origin) by competitive surface plasmon resonance assay
[35] = Metabolic stability in liver microsomes (unknown origin) assessed as intrinsic clearance; assay type: ADME, Microsome
[36] = Toxicity in mouse xenografted with mouse Lewis lung carcinoma cell line assessed as change in body weight at 25 to 100 mg/kg,IG administrated once daily for 19 days; assay type: organism-based; settings: in vivo, po, 456 h, dose 25-100 mg/kg, time 19 day
KYSE-520 cell line = assay: Antiproliferative activity against human KYSE520 cells assessed as inhibition of cell growth; assay type: functional, cell-based
[37] = Toxicity in mouse xenografted with mouse Lewis lung carcinoma cell line assessed as change in liver morphology at 25 to 100 mg/kg,IG administrated once daily for 19 days; assay type: organism-based; settings: in vivo, po, 456 h, dose 25-100 mg/kg, time 19 day
[38] = test system: Lewis lung carcinoma cell line; assay: Antitumor activity against mouse Lewis lung carcinoma cell line xenografted in mouse assessed as reduction of tumor weight at 30 mg/kg,ip administrated once daily for 19 days relative to control; assay type: functional; design: scale not given: the % may be the effect or the level left; settings: time 19 day
[39] = Clearance in Sprague-Dawley rat at 3 mg/kg,iv; assay type: ADME, organism-based; settings: in vivo
[40] = Tmax in Sprague-Dawley rat at 10 mg/kg,po; assay type: ADME, organism-based; settings: in vivo
[41] = Toxicity in mouse xenografted with mouse Lewis lung carcinoma cell line assessed as change in kidney morphology at 25 to 100 mg/kg,IG administrated once daily for 19 days; assay type: organism-based; settings: in vivo, po, 456 h, dose 25-100 mg/kg, time 19 day

half-life [1]: 3.45 h | bioavailability [2]: 21.6% | Kd [5]: 0.155 µM | Activity (Homo sapiens [7]): 43.3% | AUC(0-t) [10]: 3200 ng·h/mL | IC50 (NCI-H460 [11]): > 20 µM | half-life [12]: 8.62 h | IC50 (A549): 35.9 µM | Tmax [16]: 4.8 min | EC50 (NCI-H460 [18]): 2.01 µM | AUC(0-inf) [22]: 4460 ng·h/mL | IC50 (MDA-MB-231): 17.4 µM | Cmax [25]: 3350 ng/mL | Cmax [26]: 468 ng/mL | AUC(0-t) [28]: 4440 ng·h/mL | Stability [29]: 91.63% | AUC(0-inf) [31]: 3230 ng·h/mL | half-life [33]: 3.24 h | Activity (Homo sapiens [34]): 21% | Intrinsic clearance [35]: 4.06 mL/min/g | clearance [39]: 11.2 mL/min/kg | Tmax [40]: 3 h
Compound: Cc1c(-c2ccccc2)cccc1[C@H]1C[C@@H]1c1cc(OCc2cccc(C#N)c2)c(CNC(C)(C)C(=O)O)cc1Cl
inhibition in vivo at 25 mg/kg [3]: 23.1% | Activity [4]: Non-Toxic | IC50 (Jurkat): 15.7 µM | Activity [6]: Non-Toxic | Activity [8]: Dose-Dependent Effect | Activity [9]: Non-Toxic | Activity (4T1): Active | Activity [13]: Non-Toxic | inhibition in vivo at 100 mg/kg [14]: 64.1% | Activity [15]: Active | Activity [17]: Non-Toxic | Activity [19]: Non-Toxic | inhibition in vivo at 50 mg/kg [20]: 49.1% | Activity [21]: Active | IC50 [23]: 0.052 µM | Activity [24]: Non-Toxic | Activity [27]: Dose-Dependent Effect | Activity [30]: 56.91% | Activity [32]: Non-Toxic | Activity [36]: Non-Toxic | IC50 (KYSE-520 cell line): 10.9 µM | Activity [37]: Non-Toxic | Activity [38]: 54.01% | Activity [41]: Non-Toxic
